Columns and labels:
[1] = test system: U266 cells; test: Viability of U266 cells grown in patient serum; assay type: cell-based, human; conditions: serum approximately 100 days following HSCT; compared to serum of patients receiving TMP-SMX; 4 days
Protocol: FIG. 43 contains a dot plot quantifying viability of U266 cancer cells grown for 4 days in serum from patients taking trimethoprim/sulfamethoxazole (TMP/SMX) or atovaquone; the indicated p-value was determined using the two-sample t-test.
The patient population consisted of AML patients treated with HSCT at the Dana-Farber Cancer Institute and who survived at least 150 days after transplant without relapse. Patients treated with atovaquone for at least 100 days within the 150-day period were classified as “high atovaquone” exposure, while the remaining patients were classified as “low atovaquone” exposure. […] To further investigate the anti-cancer activity of atovaquone in patients, serum samples were collected from patients approximately 100 days following HSCT who were being treated with either TMP-SMX or atovaquone. […] Atovaquone is a colored compound, and its presence in patient plasma is visibly noticeable.

[2] = test system: non-malignant peripheral blood mononuclear cells (PBMC); test: Cell viability (Cell Titer Glo), PBMC; assay type: cell-based; conditions: 72 hours, healthy donors
Protocol: Mouse embryonic fibroblasts (MEFs) were cultured in DMEM+10% FBS. TSC2-null (see, Zhang et al. J Clin Invest. 2003; 112(8):1223-1233) and REDD1-null (see, Sofer et al. Mol. Cell. Biol. July 2005 vol. 25 no. 14 5834-5845) MEFs, along with MEFs from the littermate controls, were kind gifts from Dr. John Blenis and Dr. Leif Ellisen, respectively. HEL (see, Iwama et al. Mol. Cell. Biol. June 1999 vol. 19 no. 6 3940-3950) was a kind gift of Dr. Daniel G. Tenen and grown in RPMI-1640+10% FBS. OCI-AML2 and OCI-AML3 (see, Grunberger et al. Blood Dec. 1, 2003 vol. 102 no. 12 4153-4158), and MOLM-13 (German Collection of Microorganisms and Cell Cultures (DSMZ, Braunschweig, Germany)) were kind gifts of Dr. James D. Griffin and grown in RPMI-1640+10% FBS. MM.1S (ATCC) was a kind gift of Dr. Kenneth C. Anderson and grown in RPMI-1640+10% FBS. SET2 (see, Koppikar et al. Nature 489, 155-159 (6 Sep. 2012)) was a kind gift of Dr. Ross L. Levine and grown in RPMI-1640+10% FBS. HL60 (ATCC) was a kind gift of Dr. James D. Griffin and grown in RPMI-1640+10% FBS. […] Molecular Pharmacology 78(5):903-908; and Walker S R, et al. (2009) Reciprocal effects of STAT5 and STAT3 in breast cancer. Molecular Cancer Research: MCR 7(6):966-976). Peripheral blood mononuclear cells (PBMCs) were isolated from healthy donors by Ficoll density gradient centrifugation and maintained in RPMI-1640+10% FBS. […]

For O=C1C(O)=C([C@H]2CC[C@H](c3ccc(Cl)cc3)CC2)C(=O)c2ccccc21 [atovaquone, trans-2-[4-(4-chlorophenyl)cyclohexyl]-3-hydroxy-1,4-naphthalenedione], the “viability of U266 cells in serum from treated patients” value [1] was “reduced the viability of U266 cells” and the “viability of PBMC” value [2] was “relatively preserved”.

— US10130590B2, “Methods of treating cancer with atovaquone-related compounds” (DANA-FARBER CANCER INSTITUTE, INC., priority 2013, dated 2018)
